Data published in PMC9144278, “Inclusion of a Phytomedicinal Flavonoid in Biocompatible Surface-Modified Chylomicron Mimic Nanovesicles with Improved Oral Bioavailability and Virucidal Activity: Molecular Modeling and Pharmacodynamic Studies” (Pharmaceutics, 2022).
In brackets after ≈: the same amount, converted by molar mass. Like-named read-outs stand apart in the source and are kept apart here.

What was measured:
[1] = cited from earlier work
[2] = test system: MERS-CoV; type: in vivo, C57BL/6 mice; conditions: oral 10 mg/kg once daily
[3] = test system: myeloperoxidase (MPO) and NF-κB; set-up: species or system C57BL/6 mice; conditions: mouse, in vivo
[4] = test system: lung tissue; set-up: species or system C57BL/6 mice; conditions: mouse, in vivo
[5] = Ex vivo drug gut-permeation study, noneverted gut sac technique; type: in vitro ADME, male Wistar rats; conditions: rat intestine
Procedure: A comparative ex vivo intestinal transport study between the drug suspension and the optimized formula was conducted using the noneverted gut sac technique. […] The small intestine from each animal was then excised and sliced into sections 5 cm in length. The sections were then rinsed using normal saline. Krebs–Ringer solution (~2 mL) was utilized to irrigate the intestinal segments, followed by sac formation by closing the lower portion of the segments using a thread. Each sac was filled with a sample of the pure MH suspension (estimated to comprise 5.0 mg of MH) or with the optimized F9 formulation (estimated to comprise 5.0 mg of MH). Finally, each sac was allocated in an organ path packed with 50 mL of Krebs–Ringer solution after the lower portion of each sac was tightly sealed with a thread. […] CO2 mixture. […] To maintain a constant total volume, the organ path was compensated by the addition of equal volumes of fresh Krebs–Ringer solution after each sample for analysis had been withdrawn. The amounts of MH that had permeated through the intestinal segment were determined via HPLC using a Hitachi LaChrom Elite instrument equipped with a Model Series L-2000 organizer box, L-2300 column oven, L-2130 pump with built in degasser, Rheodyne 7725i injector with a […], and a L-2455 photodiode array detector (PAD). […]

[6] = test system: MERS-related coronavirus isolate NRCE-HKU270; experiment: microbe, parasite or virus in culture; type: cell-based, MERS-CoV
[7] = test system: IFN-γ, TNF-α, IL-6, IL-4, SOD in BALF; set-up: species or system C57BL/6 mice; conditions: mouse, in vivo, po, 10 mg/kg
[8] = test system: Vero E6 cells; experiment: MTT cytotoxicity assay (TC50); type: cell-based, African green monkey; conditions: 24 h
Procedure: Dulbecco’s Modified Eagle’s Medium (DMEM) was utilized for sample dilutions. The stock solutions of the investigated formulations were employed as solutions in 10% DMSO in double-distilled H2O. Cells were harvested in 96-well plates (100-µL/well at a density of 3 × 10^5 cells/mL) and were incubated for 24 h at 37 °C in 5% CO2. Afterwards, various amounts of the investigated compounds were added to the cells, and each experiment was performed in triplicate. After an extra 24 h, cell monolayers were dislodged from the supernatant and then rinsed 3 times with sterile phosphate buffer saline (PBS). MTT solution (20.0 µL of 5.00 mg/mL stock solution) was added into each well, and the cells were incubated for 4 h at 37 °C, followed by aspiration of the medium. […] The absorbances of the formazan solutions were assessed at λmax 540 vs. the 620 nm reference wavelength, using a multiwell plate reader. The cytotoxicity percentages related to the untreated cells were computed via GraphPad Prism software (version 7.01) using the following formula: %Cytotoxicity = (absorbance of cells without treatment − absorbance of cells with treatment) × 100 (absorbance of cells without treatment) […]

[9] = Particle size, zeta potential and PDI by Zetasizer (dynamic laser scattering); type: physicochemical
Procedure: The MH-charged PCMs (0.10 mL) were admixed with distilled water (10.0 mL) in a glass culture tube and vortexed for 5 min. The particle sizes and their scattering surrounding the mean (including those of the pure-MH dispersion, shown in Supplementary Materials Figure S1) were determined at 25 °C using dynamic laser scattering with a 45 mm focus lens and a beam length of 2.4 mm. The same instrument was utilized for the ZP measurements of the electrophoretic mobility of the particles in the electric field.

[10] = Pharmacokinetic study after oral administration; conditions: rat
[11] = male, Wistar albino, in vivo, po, 20 mg/kg

NC(=O)N1c2ccccc2CC(=O)c2ccccc21 [oxycarbazepine]
pKa [1]: 10.7

O=c1c(O)c(-c2ccc(O)cc2O)oc2cc(O)cc(O)c12 [MH, 2′,3,4′,5,7-pentahydroxyflavone]
% plaque prohibition in lung homogenate ([2]; after 3 d postinfection): 27.1% | % plaque prohibition in lung homogenate ([2]; after 6 d postinfection): 44.8% | effect on MPO and NF-κB protein expression in lung [3]: markedly suppressed the protein expression compared with the infected group | effect on lung pathological alterations [4]: marked suppression in all of those alterations | Papp at 90 min ([5]; male, Wistar, read-out: apparent permeability coefficient (APC) (converted)): 25.3 nm/s | flux (Jmax) ([5]; after 90 min): 0.37 ± 0.018 μg/cm^2/min | selectivity index (SI = CC50/EC50) [6]: 19.4 | EC50 ([6]; Middle East respiratory syndrome-related coronavirus, Vero C1008, read-out: EC50 antiviral activity): 0.13 mg/L (≈ 0.43 µM) | inhibition at 0.125 µg/mL ([6]; Middle East respiratory syndrome-related coronavirus, Vero C1008, read-out: inhibition efficacy (viral plaques)): 48% | IFN-γ level in BALF [7]: 82.7 ± 7.51 pg/mg protein | IL-4 level in BALF [7]: 23.5 ± 2.10 pg/mg protein | IL-6 level in BALF [7]: 112.9 ± 14.6 pg/mg protein | SOD level in BALF [7]: 2.2 ± 0.35 U/mg protein | TNF-α level in BALF [7]: 57.4 ± 6.2 pg/mg protein | concentration for 50% cell cytotoxicity (TC50) [8]: 2.53 mg/L | particle sizes of MH dispersion ([9]; MH dispersion in PBS used for oral dosing): 672.3 ± 32.1 | PDI polydispersity index ([9]; mean ± SD (n = 3)): 0.576 ± 0.1 | AUC(0-inf) [10, 11]: 77 ± 22 µg·h/mL | Tmax [10, 11]: 2 h | AUC(0-t) ([10]; male, Wistar albino, in vivo, po, 20 mg/kg, AUC0–24, rat, 20 mg/kg MH, n = 6): 56.1 ± 16.2 µg·h/mL | Cmax ([10]; male, Wistar albino, in vivo, po, 20 mg/kg, Cmax, 20 mg/kg MH, n = 6): 4.82 ± 0.84 µg/mL | AUC0–24 ([10]; oral, 20 mg/kg MH, n = 6, listed as Morin Hydrate Dispersion): 56 ± 16 µg·h/mL
